Experimental data: patent publication US8802593B2 (priority 2009, dated 2014)

How the values were obtained:
Assay type in all cases: in vivo
wheat leaf rust = assay: Test Example 2: foliar spray on wheat, wheat leaf rust, control value; conditions: wheat (SHIROGANEKOMUGI) leaf spray, Compound I 0, 8 days at 23° C.
Method: A plastic pot was filled with sandy soil and seeds of wheat (SHIROGANEKOMUGI) were sown on it, followed by cultivation in a greenhouse for 10 days. A wettable powder of the compound I was prepared by mixing 10 parts of the compound I, 35 parts of a mixture of white carbon and a polyoxyethylene alkyl ether sulfate ammonium salt (weight ratio of 1:1) and 55 parts of […], followed by grinding the mixture. A wettable powder of the compound (1b) was prepared by mixing 10 parts of the compound (1b), 35 parts of a mixture of white carbon and a polyoxyethylene alkyl ether sulfate ammonium salt (weight ratio of 1:1) and 55 parts of […], followed by grinding the mixture. […] After allowing to stand overnight at 23° C. under high humidity followed by cultivation in an artificial climate laboratory at 23° C. for 8 days, leaf area and lesion area of the wheat leaves were checked and the incidence of disease was calculated by Equation 3. […]
(§1) In order to calculate a control value, the same test was conducted in which the plants had been treated with none of the test compounds and the incidence of disease was determined.
(§2) The control value was calculated by the Equation 2 based on the incidence of disease thus determined. […]

Fusarium graminearum = conditions: corn (Pioneer) seeds; QoI alone 10 g per 100 kg seeds; 15° C. for 15 days; seedling emergence
[1] = system: Fusarium solani f. sp. pisi; assay: Test Example 1: seed treatment of pea, pea root rot, control value; conditions: Pisum sativum L seeds, Compound I 0, pea root rot after 16 days
Method: A DMSO solution of the compound I and a DMSO solution of the compound (1b) were respectively prepared. These solutions were mixed to prepare a DMSO solution containing predetermined concentrations of the compound I and the compound (1b). Ten (10) μL of the DMSO solution and 10 g of seeds of Pisum sativum L were mixed by shaking in a 50-ml conical tube and then allowed to stand overnight to prepare treated seeds. A plastic pot was filled with sandy soil and the treated seeds were sown on it and then covered with sandy soil which had been mixed with a bran culture of Fusarium solani f. sp. pisi. The sown seeds were watered and then cultured in a greenhouse at 20 to 24° C. […] After 16 days, the occurrence of pea root rot diseases was checked and the incidence of disease was calculated by Equation 1.
For comparison, a DMSO solution containing a predetermined concentration of the compound (1b) was prepared and subjected to the same test and then the incidence of disease was determined.
as §1, §2

Fusarium avenaceum = assay: Test Example 4: seed treatment of corn, soil with Fusarium avenaceum, control value; conditions: corn (Pioneer) seeds; azoxystrobin alone 10 g per 100 kg seeds; 15° C. for 15 days; seedling emergence
Method: A DMSO solution of the compound I and a DMSO solution of azoxystrobin were respectively prepared. These solutions were mixed to prepare a DMSO solution containing predetermined concentrations of the compound I and azoxystrobin. Twenty-five (25) μL of each of the DMSO solution and 10 g of seeds of corn (Pioneer) were mixed by shaking in a 50-ml conical tube and then allowed to stand overnight to prepare treated seeds. A plastic pot was filled with sandy soil and the treated seeds were sown on it and then covered with sandy soil which had been mixed with a bran culture of Fusarium avenaceum. The sown seeds were watered and then cultured in a greenhouse at 15° C. for 15 days. The number of emerged seedlings was checked and the incidence of disease was calculated by Equation 4.
For comparison, a DMSO solution containing a predetermined concentration of azoxystrobin was prepared and subjected to the same test and then the incidence of disease was determined.
as §1
The control value was calculated by the Equation 2 based on the incidence of disease thus determined.

Compound	Control value (Fusarium graminearum)	further results
CNC(=O)C(OC)c1ccccc1COc1cc(C)ccc1C (racemic) [Compound (1b)]	83	Control value (wheat leaf rust; Compound (1b) 10 ppm): 50; Control value (wheat leaf rust; Compound (1b) 20 ppm): 81; Control value ([1]; Compound (1b) 1 g/100 kg seeds): 64; Control value ([1]; Compound (1b) 5 g/100 kg seeds): 64
CO/C=C(/C(=O)OC)c1ccccc1Oc1cc(Oc2ccccc2C#N)ncn1 [azoxystrobin]	–	Control value (Fusarium avenaceum): 67
CO/N=C(/C(=O)OC)c1ccccc1COc1ccccc1C [kresoxim-methyl]	67	–
COC(=O)N(OC)c1ccccc1COc1ccn(-c2ccc(Cl)cc2)n1 [pyraclostrobin]	83	–
COC(=O)NCc1cc(/C(C)=N/OCc2cccc(C)n2)ccc1Cl [pyribencarb]	83	–
CON=C(C(=O)OC)c1ccccc1CON=C(C)c1cccc(C(F)(F)F)c1 [trifloxystrobin]	83	–
